Measurements reported in PMC9120017, “Inhibition mechanism of the chloride channel TMEM16A by the pore blocker 1PBC” (Nature Communications, 2022).
Read-outs that look alike come from different tables or passages of the source.

Target: T1, mouse TMEM16A mutant I512A (Mus musculus, UniProt Q8BHY3, I512A)
T1 construct: expressed in transfected cells; host or cells: HEK293T
T1 sequence (Q8BHY3 1-960 I512A): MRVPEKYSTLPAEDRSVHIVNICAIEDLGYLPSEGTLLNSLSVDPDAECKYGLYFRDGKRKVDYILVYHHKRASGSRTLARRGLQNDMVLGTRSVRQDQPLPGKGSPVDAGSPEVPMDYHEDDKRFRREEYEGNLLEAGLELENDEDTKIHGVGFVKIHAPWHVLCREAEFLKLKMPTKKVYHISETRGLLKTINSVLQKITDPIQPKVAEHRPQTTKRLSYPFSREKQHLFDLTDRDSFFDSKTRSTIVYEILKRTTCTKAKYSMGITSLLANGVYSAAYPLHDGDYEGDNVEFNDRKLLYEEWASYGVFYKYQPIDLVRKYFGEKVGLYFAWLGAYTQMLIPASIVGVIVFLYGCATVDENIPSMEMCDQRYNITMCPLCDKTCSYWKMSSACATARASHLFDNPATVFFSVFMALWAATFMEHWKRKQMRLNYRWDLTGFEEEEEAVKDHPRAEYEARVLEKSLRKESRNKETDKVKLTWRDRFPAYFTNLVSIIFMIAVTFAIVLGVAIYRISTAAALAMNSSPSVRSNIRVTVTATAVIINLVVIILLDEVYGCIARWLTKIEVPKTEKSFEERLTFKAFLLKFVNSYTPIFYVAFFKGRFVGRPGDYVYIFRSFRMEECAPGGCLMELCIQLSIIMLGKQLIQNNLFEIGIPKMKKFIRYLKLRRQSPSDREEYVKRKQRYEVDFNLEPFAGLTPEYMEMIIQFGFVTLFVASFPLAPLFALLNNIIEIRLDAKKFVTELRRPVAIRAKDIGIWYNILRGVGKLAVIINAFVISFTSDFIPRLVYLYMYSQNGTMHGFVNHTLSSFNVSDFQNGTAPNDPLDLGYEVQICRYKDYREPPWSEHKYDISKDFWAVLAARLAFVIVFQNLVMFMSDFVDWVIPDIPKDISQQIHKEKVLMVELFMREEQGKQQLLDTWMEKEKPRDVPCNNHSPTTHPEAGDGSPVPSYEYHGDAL
Experiment: Inside-out patch recording of 1PBC block, mutant I512A
Format: cell-based
Conditions: for remaining activity at 100 µM: 100 µM 1PBC
Experimental: HEK293T cells (ATCC CRL-1573) were maintained in Dulbecco’s modified Eagle’s medium (DMEM; Sigma-Aldrich) supplemented with 10 U ml^−1 penicillin, 0.1 mg ml^−1 streptomycin (Sigma-Aldrich), 2 mM L-glutamine (Sigma-Aldrich), and 10% FBS (Sigma-Aldrich) in a humidified atmosphere containing 5% CO2 at 37 °C. HEK293S GnTI^− cells (ATCC CRL-3022) were maintained in HyClone HyCell TransFx-H medium (GE Healthcare) supplemented with 10 U ml^−1 penicillin, 0.1 mg ml^−1 streptomycin, 4 mM L-glutamine, 0.15% poloxamer 188 (Sigma-Aldrich), and 1% FBS in an atmosphere containing 5% CO2 at 185 rpm at 37 °C. The ac splice variant of mouse TMEM16A (UniProt ID: Q8BHY3), mouse TMEM16B (UniProt ID: Q8CFW1), or mouse TMEM16F (UniProt ID: Q6P9J9) bearing a 3C cleavage site, a Venus YFP, a Myc tag, and a Streptavidin-binding peptide (SBP) downstream of the open reading frame in a modified pcDNA3.1 vector (Invitrogen) were used as described previously[21],[31]. Mutations were introduced using a modified QuikChange method[58] and were verified by sequencing.
HEK293T cells were transfected with 3–4 μg DNA per 6 cm Petri dish using the calcium phosphate co-precipitation method and were used within 24–96 h after transfection. Recordings were performed on inside-out patches excised from HEK293T cells expressing the construct of interest. Patch pipettes were pulled from borosilicate glass capillaries (O.D. 1.5 mm, I.D. 0.86 mm, Sutter Instrument) and were fire-polished with a microforge (Narishige) before use. Pipette resistance was typically 3–8 MΩ when filled with the recording solutions detailed below. Seal resistance was typically 4 GΩ or higher. Voltage-clamp recordings were made using Axopatch 200B, Digidata 1550, and Clampex 10.7 (Molecular Devices). Analog signals were filtered with the in-built 4-pole Bessel filter at 10 kHz and were digitized at 20 kHz. Solution exchange was achieved using a gravity-fed system through a theta glass pipette mounted on an ultra-fast piezo-driven stepper (Siskiyou). […] All recordings were performed at 20 °C.
A symmetrical ionic condition was used throughout. Stock solution with Ca^2+-EGTA contained 150 mM NaCl, 5.99 mM Ca(OH)2, 5 mM EGTA, and 10 mM HEPES at pH 7.40. Stock solution with EGTA contained 150 mM NaCl, 5 mM EGTA, and 10 mM HEPES at pH 7.40. Free Ca^2+ concentrations were adjusted by mixing the stock solutions at the required ratios calculated using the WEBMAXC program (http://web.stanford.edu/~cpatton/webmaxcS.htm). Patch pipettes were filled with the stock solution with Ca^2+-EGTA, which has a free Ca^2+ concentration of 1 mM. 1PBC (ChemBridge) stock was reconstituted in anhydrous DMSO (Sigma-Aldrich) at 100 mM and stored at −20 °C. Working solutions with 1PBC were prepared by serial dilution. Unless otherwise stated, experiments were performed at a saturating Ca^2+ concentration as shown in Supplementary Table 1 and the primary data were corrected for current rundown as described previously[21],[25].
Concentration-response relations, obtained from the ratio of the I-V plots before and after the application of the blocker, were fitted to the Hill equation,1 I/Imax=1/1+IC50/[blocker]^h where I/Imax is the normalized current responses, IC50 defines the concentration at which inhibition is at its half-maximum, and h is the Hill coefficient.

N#Cc1c(C(F)(F)F)cc(O)n2c1nc1ccccc12 [1PBC]
IC50 (0 mV, 2 µM Ca2+): 30.7 µM | remaining activity at 3 µM (3 µM 1PBC, +80 mV, saturating Ca2+ (2 µM), read-out: I/Imax): 84.4% | remaining activity at 3 µM (3 µM 1PBC, -80 mV, saturating Ca2+ (2 µM), read-out: I/Imax): 94.5% | remaining activity at 10 µM (10 µM 1PBC, +80 mV, saturating Ca2+ (2 µM), read-out: I/Imax): 63.3% | remaining activity at 10 µM (10 µM 1PBC, -80 mV, saturating Ca2+ (2 µM), read-out: I/Imax): 87.2% | remaining activity at 30 µM (30 µM 1PBC, +80 mV, saturating Ca2+ (2 µM), read-out: I/Imax): 36.4% | remaining activity at 30 µM (30 µM 1PBC, -80 mV, saturating Ca2+ (2 µM), read-out: I/Imax): 65.6% | remaining activity at 100 µM (+80 mV, saturating Ca2+ (2 µM), read-out: I/Imax): 14% | remaining activity at 100 µM (-80 mV, saturating Ca2+ (2 µM), read-out: I/Imax): 36% | remaining activity at 3 µM (1PBC 3, 0 mV, read-out: fraction of unblocked current): 89.8% | remaining activity at 3 µM (1PBC 3, 20 mV, read-out: fraction of unblocked current): 88.3% | remaining activity at 3 µM (1PBC 3, 40 mV, read-out: fraction of unblocked current): 86.4% | remaining activity at 3 µM (1PBC 3, 60 mV, read-out: fraction of unblocked current): 85.9% | remaining activity at 3 µM (1PBC 3, 80 mV, read-out: fraction of unblocked current): 84.4% | remaining activity at 3 µM (1PBC 3, 100 mV, read-out: fraction of unblocked current): 83.9% | remaining activity at 3 µM (1PBC 3, 120 mV, read-out: fraction of unblocked current): 84.8% | remaining activity at 3 µM (1PBC 3, 140 mV, read-out: fraction of unblocked current): 86.4% | remaining activity at 3 µM (1PBC 3, -20 mV, read-out: fraction of unblocked current): 91.3% | remaining activity at 3 µM (1PBC 3, -40 mV, read-out: fraction of unblocked current): 92.6% | remaining activity at 3 µM (1PBC 3, -60 mV, read-out: fraction of unblocked current): 93.3% | remaining activity at 3 µM (1PBC 3, -80 mV, read-out: fraction of unblocked current): 94.5% | remaining activity at 3 µM (1PBC 3, -100 mV, read-out: fraction of unblocked current): 94.8% | remaining activity at 3 µM (1PBC 3, -120 mV, read-out: fraction of unblocked current): 95.1% | remaining activity at 3 µM (1PBC 3, -140 mV, read-out: fraction of unblocked current): 96% | remaining activity at 10 µM (1PBC 10, 0 mV, read-out: fraction of unblocked current): 76.6% | remaining activity at 10 µM (1PBC 10, 20 mV, read-out: fraction of unblocked current): 72.7% | remaining activity at 10 µM (1PBC 10, 40 mV, read-out: fraction of unblocked current): 68.9% | remaining activity at 10 µM (1PBC 10, 60 mV, read-out: fraction of unblocked current): 65.9% | remaining activity at 10 µM (1PBC 10, 80 mV, read-out: fraction of unblocked current): 63.3% | remaining activity at 10 µM (1PBC 10, 100 mV, read-out: fraction of unblocked current): 61.7% | remaining activity at 10 µM (1PBC 10, 120 mV, read-out: fraction of unblocked current): 61.7% | remaining activity at 10 µM (1PBC 10, 140 mV, read-out: fraction of unblocked current): 63.1% | remaining activity at 10 µM (1PBC 10, -20 mV, read-out: fraction of unblocked current): 80.4% | remaining activity at 10 µM (1PBC 10, -40 mV, read-out: fraction of unblocked current): 82.9% | remaining activity at 10 µM (1PBC 10, -60 mV, read-out: fraction of unblocked current): 85.2% | remaining activity at 10 µM (1PBC 10, -80 mV, read-out: fraction of unblocked current): 87.2% | remaining activity at 10 µM (1PBC 10, -100 mV, read-out: fraction of unblocked current): 88.6% | remaining activity at 10 µM (1PBC 10, -120 mV, read-out: fraction of unblocked current): 89% | remaining activity at 10 µM (1PBC 10, -140 mV, read-out: fraction of unblocked current): 89.6% | remaining activity at 30 µM (1PBC 30, 0 mV, read-out: fraction of unblocked current): 50.3% | remaining activity at 30 µM (1PBC 30, 20 mV, read-out: fraction of unblocked current): 46.3% | remaining activity at 30 µM (1PBC 30, 40 mV, read-out: fraction of unblocked current): 42.2% | remaining activity at 30 µM (1PBC 30, 60 mV, read-out: fraction of unblocked current): 39% | remaining activity at 30 µM (1PBC 30, 80 mV, read-out: fraction of unblocked current): 36.4% | remaining activity at 30 µM (1PBC 30, 100 mV, read-out: fraction of unblocked current): 34.7% | remaining activity at 30 µM (1PBC 30, 120 mV, read-out: fraction of unblocked current): 34.2% | remaining activity at 30 µM (1PBC 30, 140 mV, read-out: fraction of unblocked current): 35.1% | remaining activity at 30 µM (1PBC 30, -20 mV, read-out: fraction of unblocked current): 54.2% | remaining activity at 30 µM (1PBC 30, -40 mV, read-out: fraction of unblocked current): 58.4%
